Where only a bound is given, the exact number is not on record here.

This experiment deals with Gag-Pol polyprotein (Human immunodeficiency virus type 1 group M subtype B (isolate HXB2), UniProt P04585). Put plainly: concentration-response of HIV-1 RNase H blockers – biochemical, probe assessment, dose response (AID 652). The conditions noted are these: pH 8; 23 °C.
One may read the IC50 as the concentration needed to halve the response being measured. A higher IC50 goes with weaker potency. `O=c1c2ccccc2[se]n1-c1ccccc1` [2-Phenyl-benzo[d]isoselenazol-3-one]: the IC50 is greater than 50 µM.

In the case of `Cc1cc(C)cc(OCC(=O)Nc2nonc2NC(=O)COc2cc(C)cc(C)c2)c1` [2-(3,5-dimethylphenoxy)-N-[4-[2-(3,5-dimethylphenoxy)ethanoylamino]-1,2,5-oxadiazol-3-yl]ethanamide], the IC50 was determined as 1.89 µM.

Compound `COc1ccccc1-c1nnc2n1N=C(c1ccc(O)c(O)c1)CS2` [(4E)-4-[3-(2-methoxyphenyl)-5H-[1,2,4]triazolo[3,4-b][1,3,4]thiadiazin-6-ylidene]-2-oxidanyl-cyclohexa-2,5-dien-1-one] gave an IC50 of 1 µM.

Compound `CSc1ccc(C2c3ccc(=O)c4c(C)oc(C)c4c3OC(=N)C2C#N)cc1` (configuration not stated) [2-amino-7-keto-8,10-dimethyl-4-[4-(methylthio)phenyl]-4H-furo[1,2]cyclohepta[4,6-d]pyran-3-carbonitrile] registered an IC50 of 5.81 µM.

In turn, `CN(C)c1ccc(NC=C2C(=O)NC(=O)N(CCC3=CCCCC3)C2=O)cc1` [(5Z)-1-[2-(cyclohexen-1-yl)ethyl]-5-[[[4-(dimethylamino)phenyl]amino]methylidene]-1,3-diazinane-2,4,6-trione] displayed an IC50 of 3.8 µM.

For `C=CCn1c(N)c(C(=O)NCCC2=CCCCC2)sc1=S` [3-allyl-4-amino-N-(2-cyclohex-1-en-1-ylethyl)-2-thioxo-2,3-dihydro-1,3-thiazole-5-carboxamide], the IC50 was 3.82 µM.

`CCC1CCCCN1S(=O)(=O)c1ccc(S(=O)(=O)N2CCN(S(=O)(=O)CC)CC2)cc1` (configuration not stated) [1-Ethanesulfonyl-4-[4-(2-ethyl-piperidine-1-sulfonyl)-benzenesulfonyl]-piperazine]: the IC50 amounted to 12.3 µM.

On to `CCCc1nnc(NC(=O)CN2C(=O)c3ccccc3S2(=O)=O)s1` [2-(1,1-dioxido-3-oxo-1,2-benzisothiazol-2(3H)-yl)-N-(5-propyl-1,3,4-thiadiazol-2-yl)acetamide], for which it took 3.23 µM to reach half-maximal inhibition (IC50).

The compound `CCOC(=O)CSc1nc2cc(C(=O)NCc3ccco3)ccc2c(=O)n1-c1ccc(F)cc1` [2-[[3-(4-fluorophenyl)-7-(2-furfurylcarbamoyl)-4-keto-quinazolin-2-yl]thio]acetic acid ethyl ester] had an IC50 of 13.1 µM.

Turning to `CCc1ccc(NC(=O)CSc2nc3cc(C(=O)OC)ccc3c(=O)n2Cc2ccco2)cc1` [2-[[2-(4-ethylanilino)-2-keto-ethyl]thio]-3-(2-furfuryl)-4-keto-quinazoline-7-carboxylic acid methyl ester], inhibition was half-maximal at 2.32 µM (IC50).

Turning to `Cc1sc(NC(=O)c2oc3ccccc3c2C)c(C#N)c1C` [MLS000065828], the midpoint of inhibition, the IC50, lay at 10.8 µM.

The compound `Cc1ccc(-n2sc3ccccc3c2=O)cc1S(=O)(=O)N1CCCCC1` [2-(4-methyl-3-piperidin-1-ylsulfonyl-phenyl)-1,2-benzothiazol-3-one] returned an IC50 of 0.164 µM.

`O=c1cc(CN2CCN(c3ccccc3)CC2)c2cc(O)c(-c3ccccc3)cc2o1` [6-hydroxy-7-phenyl-4-[(4-phenyl-1-piperazinyl)methyl]-1-benzopyran-2-one] displayed an IC50 of 5.01 µM.

Regarding `Cc1cc(NC(=O)CSc2ccc(-c3nc4cc(C)c(C)cc4[nH]3)cn2)no1` [2-[5-(5,6-Dimethyl-1H-benzoimidazol-2-yl)-pyridin-2-ylsulfanyl]-N-(5-methyl-isoxazol-3-yl)-acetamide], half-maximal inhibition (IC50) was put at 16.7 µM.

With `CCOC(=O)C1=C(C)N=c2s/c(=C3/C(=O)Nc4ccccc43)c(=O)n2C1c1ccc2c(c1)OCO2` (configuration not stated) [SMR000072283], half-maximal inhibition (IC50) required 1.07 µM.

The compound `Cc1cccc(OCC(=O)Nc2cccc(-c3nnc(-c4ccccc4)o3)c2)c1C` [2-(2,3-dimethylphenoxy)-N-[3-(5-phenyl-1,3,4-oxadiazol-2-yl)phenyl]acetamide] registered an IC50 of 3.92 µM.

For the compound `COc1ccc(CC(=O)Nc2ccc(-c3noc(-c4cccc(OC)c4)n3)cc2)cc1` [2-(4-methoxyphenyl)-N-[4-[5-(3-methoxyphenyl)-1,2,4-oxadiazol-3-yl]phenyl]acetamide], 3.07 µM corresponded to half-maximal inhibition (IC50).

`CC(C)(C)C1=Nn2c(nnc2-c2ccccn2)SC1` [6-tert-butyl-3-(2-pyridinyl)-7H-[1,2,4]triazolo[3,4-b][1,3,4]thiadiazine] came in with an IC50 of 7.22 µM.

Turning to `C=CCSc1nc2c(c(=O)[nH]c(=O)n2C)n1C(C)C` [3-methyl-7-propan-2-yl-8-prop-2-enylsulfanylpurine-2,6-dione], the half-inhibitory concentration (IC50) is greater than 50 µM.

Regarding `COc1cc(OC)c(C2CC(=O)N3CN(C)CSC3=C2C#N)cc1OC` (configuration not stated) [3-methyl-6-oxidanylidene-8-(2,4,5-trimethoxyphenyl)-2,4,7,8-tetrahydropyrido[2,1-b][1,3,5]thiadiazine-9-carbonitrile], half-maximal inhibition (IC50) was put at 14.5 µM.

The compound `Cc1cccc(-n2c(N)c(C(=O)N3CCN(C)CC3)sc2=S)c1` [MLS000056753] came in with an IC50 of 45.1 µM.

Take `O=C(O)c1ccc2c(c1)NC(=O)C(N1CCCC1)S2` (configuration not stated) [3-keto-2-pyrrolidino-4H-1,4-benzothiazine-6-carboxylic acid]: half-maximal inhibition (IC50) was put at 3.69 µM.

`Cc1ccc(/C=C/C2=Cc3c(sc(NC(=O)CSc4nnc(N)[nH]4)c3C#N)C(C)(C)C2)o1` [2-[(5-azanyl-1H-1,2,4-triazol-3-yl)sulfanyl]-N-[3-cyano-7,7-dimethyl-5-[(E)-2-(5-methylfuran-2-yl)ethenyl]-6H-1-benzothiophen-2-yl]ethanamide] displayed a 50% inhibitory concentration (IC50) of 0.9 µM.

For the compound `CCOc1ccc(-n2c(=O)c3c4c(sc3n(CC(=O)NCc3ccco3)c2=O)CCC4)cc1` [2-(1,3-diketo-2-p-phenetyl-7,8-dihydro-6H-cyclopenta[2,3]thieno[2,4-b]pyrimidin-4-yl)-N-(2-furfuryl)acetamide], the IC50 came out at 22.4 µM.

On to `c1ccc(-c2ccc(C3=Nc4ncnn4C(c4ccco4)C3)cc2)cc1` (configuration not stated), for which half-maximal inhibition (IC50) was put at 14.5 µM.

In the case of `COC(=O)c1ccccc1S(=O)(=O)N(Cc1cc2cc3c(cc2[nH]c1=O)OCO3)C1CCCCC1` [SMR000002998], the half-maximal inhibitory concentration (IC50) was found to be 21.1 µM.

In turn, `COc1ccc(N2CCN(Cc3cc(=O)oc4cc5c(cc34)CCCC5)CC2)cc1` [4-[[4-(4-methoxyphenyl)-1-piperazinyl]methyl]-6,7,8,9-tetrahydrobenzo[g][1]benzopyran-2-one] came in with an IC50 of 4.35 µM.

Compound `COc1ccc(OC)c(C=Nc2oc(-c3ccco3)c(-c3ccco3)c2C#N)c1` [MLS000068778] had a half-inhibitory concentration (IC50) of 4.02 µM.

On to `CCCc1cc(C(N)=O)c(NC(=O)C2CCCO2)s1` (configuration not stated) [MLS000065925], for which the IC50 is 1.89 µM.

In the case of `O=C(O)c1cc(S(=O)(=O)Nc2ccc3oc(=O)sc3c2)ccc1O` [2-hydroxy-5-[(2-keto-1,3-benzoxathiol-5-yl)sulfamoyl]benzoic acid], the IC50 turned out to be 7.39 µM.

Turning to `CCCCC(CC)Cn1c2nc3ccccc3nc2c2c(=N)oc(C)nc21` (configuration not stated) [MLS000098038], half-maximal inhibition (IC50) was put at 2.33 µM.

For `COc1cc(-c2nnc3sc(-c4cccnc4)nn23)cc(OC)c1OC` [6-(3-pyridinyl)-3-(3,4,5-trimethoxyphenyl)-[1,2,4]triazolo[3,4-b][1,3,4]thiadiazole], the concentration for half-maximal inhibition (IC50) is greater than 50 µM.

For `c1ccc(Cc2nn3c(Cn4nnc5ccccc54)nnc3s2)cc1` [3-(1-benzotriazolylmethyl)-6-(phenylmethyl)-[1,2,4]triazolo[3,4-b][1,3,4]thiadiazole], the IC50 was found to be 1.84 µM.

`CN(C)c1ccc2c(c1)N=C(c1ccco1)OP2(=S)N1CCOCC1` (configuration not stated) [3-(2-furanyl)-N,N-dimethyl-1-(4-morpholinyl)-1-sulfanylidene-2,4,1-benzoxazaphosphorin-6-amine]: it took 1.66 µM to reach half-maximal inhibition (IC50).

Take `CC(C)c1nc2sc3c(SCC(=O)NCc4ccco4)ncnc3c2c2c1CCC2` [MLS000082582]: half-maximal inhibition (IC50) was put at 2.28 µM.

`Cc1cc(-c2nn3c(-c4ccccc4)nnc3s2)c2ccccc2n1` [2-methyl-4-(3-phenyl[1,2,4]triazolo[3,4-b][1,3,4]thiadiazol-6-yl)quinoline] returned an IC50 of 2.6 µM.

In the case of `COc1ccc(Cn2nnnc2C(c2cccnc2)N2CCN(c3ccc(O)cc3)CC2)cc1` (configuration not stated) [4-(4-{[1-(4-Methoxy-benzyl)-1H-tetrazol-5-yl]-pyridin-3-yl-methyl}-piperazin-1-yl)-phenol], the half-maximal inhibitory concentration (IC50) is greater than 50 µM.

In the case of `CN1CCN(C(=O)c2sc(=S)n(-c3ccccc3)c2N)CC1` [(4-amino-3-phenyl-2-sulfanylidene-1,3-thiazol-5-yl)-(4-methylpiperazin-1-yl)methanone], the IC50 came to 2.29 µM.

On to `COC(=O)c1ccc2c(=O)[nH]c(CN3c4ccccc4CC3C)nc2c1` (configuration not stated) [methyl 2-[(2-methyl-2,3-dihydroindol-1-yl)methyl]-4-oxo-1H-quinazoline-7-carboxylate], for which half-maximal inhibition (IC50) was put at 13.3 µM.

Regarding `Cc1ccc(NC(=O)Cn2nnc(C(=O)Nc3ccc(C)c(C)c3)c2N)cc1` [5-amino-N-(3,4-dimethylphenyl)-1-[2-(4-methylanilino)-2-oxoethyl]-4-triazolecarboxamide], half-maximal inhibition (IC50) was put at 16.4 µM.

For the compound `Cc1nc(C)c(C(=O)Nc2nc3c(C)cccc3s2)o1` [2,4-dimethyl-N-(4-methyl-1,3-benzothiazol-2-yl)-1,3-oxazole-5-carboxamide], the IC50 came out at 1.49 µM.

As to `O=C(NCc1ccco1)c1cc2cc3ccc(Cl)cc3nc2o1` [7-chloranyl-N-(furan-2-ylmethyl)furo[2,3-b]quinoline-2-carboxamide], the IC50 worked out at 19.2 µM.

The compound `CCOC(=O)Cc1csc(-n2sc3ccccc3c2=O)n1` [MLS000082162] returned an IC50 of 0.598 µM.

The compound `O=C(CSc1nnnn1-c1ccccc1)Nc1nsc(-c2ccc(Cl)cc2)n1` [MLS000085595] returned an IC50 of 15.7 µM.

`Cc1nc(-c2cccc(S(=O)(=O)N3CCOCC3)c2)cs1` [4-[3-(2-methyl-1,3-thiazol-4-yl)phenyl]sulfonylmorpholine] had an IC50 of 5.96 µM.

`O=C(NC(=O)c1ccc(Cl)cc1)Nc1cc(N2CCCCC2)ncn1` [4-chloranyl-N-[(6-piperidin-1-ylpyrimidin-4-yl)carbamoyl]benzamide] registered an IC50 of 8.45 µM.

`CCc1ccccc1N1CSC2=C(C#N)C(c3cc(OC)c(OC)cc3OC)CC(=O)N2C1` (configuration not stated) [3-(2-ethylphenyl)-6-oxidanylidene-8-(2,4,5-trimethoxyphenyl)-2,4,7,8-tetrahydropyrido[2,1-b][1,3,5]thiadiazine-9-carbonitrile] yielded an IC50 of 2.91 µM.
